In US20190209581A1, “DOSAGE REGIMEN FOR TREATMENT OF SOLID TUMORS” (Eli Lilly and Company, priority 2016, published 2019):

Experiments:
[1] = system: HEL 92.1.7 human erythroleukemia cell line; experiment: Tumor growth inhibition, HEL 92.1.7 xenograft; type: in vivo; conditions: HEL 92.1.7 in mice, oral 8 mg/kg, Q2dx14; p NS
Procedure: (§1) To evaluate in vivo efficacy and effect of 4,4,4-Trifluoro-N-[(1S)-2-[[(7S)-5-(2-hydroxyethyl)-6-oxo-7H-pyrido[2,3-d][3]benzazepin-7-yl]amino]-1-methyl-2-oxo-ethyl]butanamide on inhibition of Notch processing pharmacodynamics (PD), several cell lines- and patient-derived xenograft models are used. A2780 is a human ovarian cell line (Sigma-Aldrich, No. 93112519); SW480 is a human colorectal cell line (ATCC No. CCL-228); HCT 116 is a human colorectal cell line (ATCC No. CCL-247); U-87 MG is a human glioblastoma cell line (ATCC No. HTB-14); A375 is a human malignant melanoma cell line (ATCC No. CRL-1619); K-562 is a human chronic myelogenous leukemia (CML) cell line characterized by the presence of a fusion transcript comprised of the Bcr and Abl1 genes (ATCC No. CCL-243); Jurkat; HEL 92.1.7 is a human erythroleukemia cell line (ATCC No. TIB-180). […] Tumor growth and body weight are monitored over time to evaluate efficacy and signs of toxicity. Bidimensional measurements of tumors are performed twice a week and tumor volumes are calculated based on the following formula: (Tumor Volume)=[(L)×(W2)×(Π/6)] where L is mid-axis length and W is mid-axis width. […] The log volume data are analyzed with a two-way repeated measures analysis of variance by time and treatment using the MIXED™ procedures in SAS™ software (version 8.2). […]

[2] = system: human glioblastoma (EL 2056); experiment: Tumor growth inhibition, patient-derived tumor model EL2056; type: in vivo; conditions: EL2056 in mice, oral 8 mg/kg, (Mon, Wed, Fri)x5; p <0.0001
Procedure: as §1

[3] = system: human triple negative invasive ductal breast carcinoma (EL1997); experiment: Tumor growth inhibition, patient-derived tumor model EL1997; type: in vivo; conditions: EL1997 in mice, oral 10 mg/kg (Q2Dx7), 11-days OFF, 8 mg/kg (Mon, Wed, Fri)x4; p <0.0001
Procedure: as §1

Toxicokinetics in rats = type: in vivo, rat
Procedure: A study is carried out to assess the toxicity and toxicokinetics of 4,4,4-Trifluoro-N-[(1S)-2-[[(7S)-5-(2-hydroxyethyl)-6-oxo-7H-pyrido[2,3-d][3]benzazepin-7-yl]amino]-1-methyl-2-oxo-ethyl]butanamide in rats given oral gavage doses of 0, 1.3, or 4.3 mg/kg once daily for 2 weeks or 1, 3, 10, or 30 mg/kg 3 times/week for 2 weeks.
4,4,4-Trifluoro-N-[(1S)-2-[[(7S)-5-(2-hydroxyethyl)-6-oxo-7H-pyrido[2,3-d][3]benzazepin-7-yl]amino]-1-methyl-2-oxo-ethyl]butanamide is combined with a vehicle comprising 1% carboxymethylcellulose sodium, 0.25% polysorbate 80 and 0.05% Dow Corning® Antifoam 1510-US in purified water. Sprague Dawley CD®/IGS rats (crl:CD(SD)), International Genetic Standardization (IGS) 7-9 week old rats, 3/sex/group, Charles River Laboratories, Inc, are used for the study. Animals are fed ad libitum with 12 hours light, 12 hours dark cycle maintained in ventilated stainless-steel racks at an ambient temperature of 22.2+/[…] and relative humidity of 30% to 70%. The test compound is dosed according to Table 1. The test compound is administered by oral gavage in a volume of 10 mL/kg body weight. The duration of the study for all groups is 14 days.
Additional Groups of animals 3/sex/group (Groups 08, 09, and 12) and 3 females/group (Groups 10, 11, and 13) are dosed for toxicokinetic evaluations. For Groups 08, 09, and 10, blood is collected from each animal at the following times relative to dosing on Days 3 and 14: 0 (predose; Day 14 only), 0.5, 1, 2, 4, 8, 24, 30, and 48 hours postdose. For Group 11, blood is collected from each animal at the following times relative to dosing on Day 3: 0.5, 1, 2, 4, 8, 24, 30, and 48 hours postdose. For Group 12, blood is collected from each animal at the following times relative to dosing on Days 1 and 14: 0 (predose; Day 14 only), 0.5, 1, 2, 4, 8, and 24 hours postdose. For Group 13 blood is collected from each animal at the following times relative to dosing on Day 1: 0.5, 1, 2, 4, 8, and 24 hours postdose. Groups 08 through 13 are used for toxicokinetic evaluations. […]

C[C@H](NC(=O)CCC(F)(F)F)C(=O)N[C@@H]1C(=O)N(CCO)c2ncccc2-c2ccccc21 [Compound 1, 4,4,4-trifluoro-N-[(1S)-2-[[(7S)-5-(2-hydroxyethyl)-6-oxo-7H-pyrido[2,3-d][3]benzazepin-7-yl]amino]-1-methyl-2-oxo-ethyl]butanamide]
% TGI [1]: 7.20 (NS) % | % TGI [2]: 59.05 (<0.0001) % | % TGI [3]: 80.28 (<0.0001) % | 24 hour drug concentrations (Toxicokinetics in rats; rat, daily and TIW regimens): minimal | Accumulation and differences between sexes in exposure (Toxicokinetics in rats; rats, oral gavage): No accumulation or major differences between sexes | Exposure (AUC0-24 hr) versus dose (Toxicokinetics in rats; rats, oral gavage, following both single and multiple doses): increased in a roughly linear and dose-proportional manner
